Reference: patent publication US20090028969A1, “Compostion for treating skin” (priority 2006, published 2009)

Tests used:
[1] = target: mushroom tyrosinase; settings: enzymatic mushroom tyrosinase assay, literature; cited from earlier work
[2] = test system: normal human epidermal melanocytes (line M99-1H6); test: Intracellular melanin content of UVB-stimulated human cultured melanocytes; assay type: cell-based; settings: With UV; for PA (pigmenting activity): vs irradiated control
Experimental: In order to evaluate the activity on pigmentation, an in vitro experiment, based on the measurement of intracellular melanin content of human cultured melanocytes exposed (UVB-stimulated) or not exposed to radiation, in the absence and in the presence of the test compound, was conducted. […] Normal human epidermal melanocytes from newborn foreskin were cultured at […] in MGM “serum free” medium (Melanocyte Growth Medium, PromoCell®) supplemented with antibiotics. Cultures were maintained at 37° C. in a humidified 5% CO2 atmosphere. Subcultures of human melanocytes were propaged in MGM medium and used just before reaching confluence. Cells were counted and diluted to the desired concentration in culture medium without calf serum. The cultured melanocytes were placed in 24-well plates at a density of 60×10^3 cells per well. Two plates were seeded with cells: one for the measurement of melanin content (“Melanin plate”) and the other for the measurement of cell densities (“Neutral Red” plate). […] Cells were incubated at 37° C., in a 95% air-5% CO2 atmosphere for eight days. During this period cells were exposed to UVB radiation at day 1 (D1), day 2 (D2), day 3 (D3), day 4 (D4), day 7 (D7) and day 8 (D8). UVB radiation exposure was carried out with a parallel bank of T[…]/12 tubes emitting a continuous spectrum between 280 and 320 nm with a peak emission at 312 nm. A UVB dose of 40 mJ/cm^2 was applied at each exposure. Sham-control cells were subjected to the same procedure, but without UV exposure and without treatment. Before exposure, cell monolayers were washed with pre-warmed Phosphate Buffer Solution (PBS) and then exposed to UVB in the presence of PBS (without test product). Immediately after irradiation PBS was replaced by fresh test medium. After treatment the culture medium was removed. The cells were washed with PBS at pH 6.8 and melanin was extracted by adding NaOH-DMSO solution. Melanin extracts were heated at 80° C. for 2 hours. After cooling, aliquots were added in 96-well microplates. Optical density (OD 450 nm) was recorded at 450 nm with a microplate reader (Dynatech MR 5000). Synthetic melanin standards (Sigma) were incubated at the same conditions. This standard curve allowed the transformation of OD 450 nm into the Melanin Unit Equivalent in each well. Melanin content was measured by absorbance at […] in control and treated melanin extracts. Results were expressed as μg melanin per well determined from the standard curve: DO(450 nm)=f([melanin]). Intracellular melanin content was measured on human normal melanocytes (line […]-1H6) after the formerly described treatment and UVB exposures of cultures. […] The melanin content (μg of melanin per well) was corrected by the cellular density of each respective culture (number of cells per well) in order to express the “Pigmentation level” of cells (expressed in pg melanin/cell). The pigmenting activity (PA) of the test product was calculated according the formula: [formula]

SMILES: OCC1O[C@@H](Oc2ccc(O)cc2)C(O)C(O)[C@@H]1O (stereo partly drawn) [arbutin, hydroquinone β-d-glucopyranoside]
- anti-tyrosinase IC50 [1]: about 100 μg/ml

SMILES: O=c1cc(-c2ccc(O)c(O)c2)oc2cc(O)cc(O)c12 [Luteolin, 3′,4′,5,7-Tetrahydroxyflavone]
- Melanin content ([2]; 1 μg/ml): 57.56 +/− 0.0 pg melanin/well
- PA (pigmenting activity) ([2]; 1 μg/ml): −22% (p < 0.01)
- Melanin content ([2]; 5 μg/ml): 55.57 +/− 0.0 pg melanin/well
- PA (pigmenting activity) ([2]; 5 μg/ml): −25% (p < 0.01)
- Melanin content ([2]; 10 μg/ml): 54.84 +/− 1.56 pg melanin/well
- PA (pigmenting activity) ([2]; 10 μg/ml): −26% (p < 0.01)

SMILES: C[C@@H]1O[C@@H](O[C@@H]2[C@@H](O)[C@H](OCCc3ccc(O)c(O)c3)O[C@H](CO)[C@H]2OC(=O)/C=C/c2ccc(O)c(O)c2)[C@H](O)[C@H](O)[C@H]1O [Verbascoside, 2-(3′,4′-dihydroxyphenyl)ethyl-O-α-1-rhamnopyranosyl-(1→3)-β-d-(4-O-caffeoyl)-glucopyranoside]
- PA (pigmenting activity) ([2]; 10 μg/ml): −20% (p < 0.01)
- Melanin content ([2]; 50 μg/ml): 58.32 +/− 4.44 pg melanin/well
- PA (pigmenting activity) ([2]; 50 μg/ml): −21% (p < 0.01)
- Melanin content ([2]; 100 μg/ml): 57.80 +/− 1.63 pg melanin/well
- PA (pigmenting activity) ([2]; 100 μg/ml): −22% (p < 0.01)
